Assays:
irradiated skin of pigs = assay: Gamma-radiation-induced dermatitis in mini-pigs, clinical skin reaction score; assay type: in vivo, Gottingen mini-pigs
Description: Male Gottingen mini-pigs (mean weight, 19 kg; range, 18-20 kg; age, 6-7 months), obtained from Institute of Animal Breeding and Genetics, University of Gottingen, Germany, were used in these experiments. The mini-pigs were provided with tap water and commercial laboratory piglet chow from Purina Germany (Purina laboratory pig chow-5085) containing crude protein, fat, fiber, and ash, as well as calcium, phosphorus, and moisture (14.5, 4, 5, 8, 0.55, 1, and 14%, respectively). In addition, no antibiotic supplements were used. All animal experiments were performed in compliance to The German Animal Welfare Act.
(§1) A formulation in accordance with embodiments of the present invention appropriate for topical administration was obtained by adding 200 mg of carbopol (Carbopol 934P; Lubrizol, USA) to 2.5 mL of distilled water and solubilizing 200 mg of 6OHM-6-HITC in 2 mL of ethanol. An appropriate amount of the ethanolic dispersion was transferred to the aqueous dispersion of carbopol. Methanol (1.25 mL) was mixed with 1 mL of ethanol and added to the 6OHM-6-HITC and carbopol mixture, which was gradually stirred, and carbopol was allowed to soak for 2 h. Triethanolamine (100 mg; Sigma-Aldrich, USA) was added to neutralize the carbopol solution and facilitate the formation of a gel, after which the pH was adjusted to 6.8. A vehicle cream was prepared using the same ingredients and identical methods as the cream, but 6OHM-6-HITC was omitted from the mixture. […] For topical treatment, 6OHM-6-HITC or the vehicle cream (concentration, 200 mg/cm^2) was spread on the irradiated skin of pigs twice daily for 35 days, and the first application was performed immediately after irradiation.
To observe the effects of gamma-radiation on the skin of mini-pigs (3 animals per group), the dorsal skin was irradiated. […]
The pigs were evaluated every week during the five weeks following the irradiation, and their skin reactions were scored using a clinical status scoring system. […]

[1] = Topical carbopol gel formulation: permeability and skin irritation; details: pH 6.8
Description: as §1

## COc1cc2c(CCCCN=C=S)c[nH]c2cc1O [6OHM-6-HITC]
Irradiated skin of pigs; 1 week after 50 Gy gamma irradiation, topical twice daily
  clinical changes of irradiated skin vs. vehicle-treated: similar
Irradiated skin of pigs; 50 Gy gamma irradiation, topical twice daily for 35 days
  severity of skin reaction vs. vehicle-treated irradiation group: decreased severity in the skin reaction
Irradiated skin of pigs; after 50 Gy gamma irradiation, topical twice daily
  time at which beneficial effects on the dermatitis appeared: 2 weeks
[1]
  permeability of 6OHM-6-HITC from topical gel formulation: highest permeability
  skin irritation by topical gel formulation: without causing skin irritation

— patent publication US12178800B2, “Sulforaphane-melatonin-like compound” (priority 2018, dated 2024)
